Results taken from patent US5707976A, “Substituted propane-2-OL derivatives” (Richter Gedeon Vegyeszeti Gyar Rt., priority 1993, dated 1998).
≈ marks a conversion by molar mass, not a printed value. Where two headings read alike, the source gives them in different places.

Legend:
Candida albicans = test: Densitometric measurement of the propagation of yeast fungi (BIOSCREEN C), minimal inhibitory concentration; assay type: cell-based; conditions: for MIC: Candida albicans
Procedure: Densitometric measurement of the propagation of yeast fungi
A microbiological analyzer called BIOSCREEN C (LAB-SYSTEMS, Helsinki, Finland) was used to the measurements. From the test compounds first a stock solution of a concentration of 50 mg/ml, then in 15 steps a bisecting dilution series was prepared with dimethyl sulfoxide. From every dilution step 10 μl each was introduced into the cells of the analysator. Then 390 μl of an aqueous nutrient solution was piperred into the cells. In the mixtures obtained the cells of the yeasts, e.g. Candida albicans, cans, were suspended in such an amount that the optical density of the suspension obtained be about 0.1. Young cultures, shaken at 30° C. for about 12 hours, were used in the preparation of the suspensions. The composition of the aqueous nutrient solution was as follows: 1% by weight of glucose, 0.5% by weight of yeast extract (a product of the firm OXOID Ltd, Great Britain, under the catalogue No. L21) and 0.5% by weight of nutrient broth (a product of the firm OXOID Ltd, Great Britain, under the catalogue No. CM 1/2). The concentration of the compounds to be tested in the cells corresponded to 1250, 625, 312, 156, 78, 39, 19, 9, 4, 2, 1, 0.6, 0.3, 0.15 and 0.07 μg/ml, resp. The densitometric measurement of the cultures was carried out during an incubation at 37° C. for 30 hours. The change in the turbidity of the culture, which can be followed through optical measurement, is proportional to the propagation of the yeast fungi.
As the minimal inhibitory concentration (MIC) of this test that minimal concentration of the tested compound was determined which was able to prevent totally the propagation of the fungus.

[1] = system: other Candida species and other pathogenic fungi; test: in vitro tests, full inhibition of other Candida species and other pathogenic fungi; assay type: cell-based; conditions: read-out: dose of full inhibition
Text: Mainly this resistant species causes the disease called "candidiasis" which is quite wide-spread and very difficult to influence.

[2] = 30 h, read-out: MIC values of the individual tests

SMILES: C[Si](C)(C)OC(Cn1ccnc1)(Cn1cncn1)c1ccc(F)cc1F (stereo not shown) [Example 3, 1-(Imidazol-1-yl)-2-(2,4-difluorophenyl)-3-(1,2,4-triazol-1-yl)-2-(trimethylsilyloxy) propane]
- MIC (Candida albicans; [2]): 150 µg/mL (≈ 397 µM)

SMILES: C[Si](C)(C)OC(CCl)(Cn1ccnc1)c1ccc(F)cc1F (stereo not shown) [Example 8, 1-Chloro-2-(2,4-difluorophenyl)-3-(imidazol-1-yl)-2-(trimethylsilyloxy)propane]
- MIC (Candida albicans; [2]): 19 µg/mL (≈ 55.1 µM)

SMILES: C[Si](C)(C)OC(Cn1cncn1)(Cn1cncn1)c1ccc(F)cc1F [Example 1, 2-(2,4-Difluorophenyl)-1,3-bis(1,2,4-triazol-1-yl)-2-(trimethylsilyloxy)propane]
- MIC (Candida albicans; [2]): 150 µg/mL (≈ 396 µM)
- effectiveness against Candida albicans compared with the active ingredient of fluconazole (Candida albicans; factor missing in the printed text): times more effective

SMILES: C[Si](C)(C)OC(CCl)(Cn1cncn1)c1ccc(F)cc1F (stereo not shown) [Example 5, 1-Chloro-2-(2,4-difluorophenyl)-3-(1,2,4-triazol-1-yl)-2-(trimethylsilyloxy) propane]
- MIC (Candida albicans; [2]): 9 µg/mL (≈ 26 µM)

SMILES: CC(Cn1cncn1)(O[Si](C)(C)C)c1ccc(F)cc1F (stereo not shown) [Example 6, 2-(2,4-Difluorophenyl)-3-(1,2,4-triazol-1-yl)-2-(trimethylsilyloxy)propane]
- MIC (Candida albicans; [2]): 150 µg/mL (≈ 482 µM)

SMILES: OC(Cn1cncn1)(Cn1cncn1)c1ccc(F)cc1F [fluconazole, 2-(2,4-difluorophenyl)-1,3-bis(1,2,4-triazol-1-yl)propane-2-ol, reference compound]
- effect against Candida albicans (in words) (Candida albicans): relatively weak effect
- MIC (Candida albicans; [2]): 2500 µg/mL (≈ 8160 µM)
- MIC (Candida albicans; in vitro, read-out: dose of full inhibition): 2500 µg/mL (≈ 8160 µM)
- MIC [1]: 0.1 to 10 µg/mL (≈ 0.327 to 32.7 µM)
